In PubChem BioAssay (NCI):
Several values for one entry are separate records, joined by “and”; a condition that tells them apart may be missing. Equal entries are not always repeated.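 Five compound concentrations were applied to cells in 96-well plates for 48 hours; endpoints were derived by simple linear interpolation of the resulting dose-response curve. GI50 marks 50% less growth. Definition used: TGI = concentration required for complete inhibition of growth.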

Columns and labels:
Experiment in all cases: DTP human tumour cell line panel, 48 h
[1] = test system: SK-MEL-2 melanoma
[2] = test system: SF-268 CNS
[3] = test system: MOLT-4 leukemia
[4] = test system: U251 CNS
[5] = test system: SF-539 CNS
[6] = test system: COLO 205 colon
[7] = test system: NCI-H522 lung
[8] = test system: MCF7 breast
[9] = test system: SK-MEL-28 melanoma
[10] = test system: MDA-MB-435

SMILES	GI50 [1]	TGI [1]	GI50 [2]	TGI [2]	GI50 [3]	TGI [3]	GI50 [4]	TGI [4]	GI50 [5]	TGI [5]	GI50 [6]	TGI [6]	GI50 [7]	TGI [7]	GI50 [8]	TGI [8]	GI50 [9]	TGI [9]	GI50 [10]	TGI [10]
Nc1n[nH]c2ccc([C@@H]3Nc4cc5[nH]ncc5cc4[C@H]4C5CCC(C5)[C@@H]34)cc12 (stereo not given in full)	0.736 µM	> 70.5 µM	1.71 µM	> 100 µM	0.442 µM	> 100 µM	0.43 µM	> 58 µM	0.269 µM	3.17 µM	0.424 µM	> 40.6 µM	0.396 µM	> 45.6 µM	0.384 µM	> 80.8 µM	10.5 µM	72.2 µM	0.3 µM	6.85 µM
Cc1c2ccncc2c(C)c2c1c1cc(CO)ccc1n2C	0.819 µM	2.54 µM	0.468 µM	7.81 µM	0.368 µM	2.13 µM	0.293 µM	1.94 µM	0.73 µM	4.2 µM	0.373 µM	1.94 µM	0.661 µM	3.81 µM	0.282 µM	10.4 µM	1.82 µM	6.5 µM	0.467 µM	3.74 µM
Nc1ncccc1-c1nc2ccc(-c3ccccc3)nc2n1-c1ccc(C2(N)CCC2)cc1	1.65 µM	3.54 µM	2.05 µM	12.4 µM	0.188 µM	7.88 µM	0.746 µM	2.31 µM	0.978 µM	2.52 µM	0.422 µM	2.14 µM	1.53 µM	3.47 µM	0.0465 µM	1.68 µM	1.2 µM	2.66 µM	1.35 µM	2.88 µM
COC(=O)/C(=C\c1ccco1)P(=O)(OC)OC		83.4 µM		> 100 µM		> 100 µM		> 100 µM		65.9 µM		> 100 µM		5.52 µM		> 100 µM		> 100 µM		> 100 µM
C[C@@H]1COCCN1c1cc(-c2ccnn2C)c2ccnc(-c3ccn[nH]3)c2n1	0.064 µM and 0.161 µM	0.734 µM and 1.85 µM	0.238 µM and 0.449 µM		0.0319 µM and 0.0751 µM	9.08 µM	0.26 µM and 1 µM	14.6 µM and > 100 µM	0.0704 µM and 0.142 µM	0.547 µM and 1.23 µM	0.28 µM and 0.573 µM	5.7 µM and > 23.4 µM	0.172 µM and 0.528 µM		0.0158 µM and 0.0425 µM	23.8 µM and > 100 µM	0.361 µM and 0.777 µM	4.2 µM and 16.8 µM	0.0984 µM and 0.199 µM	2.89 µM and 5 µM
Cc1nn(C(=O)c2ccncc2)c2c1C(c1cccc([N+](=O)[O-])c1)SC(N)=N2 (stereo not given)		> 10 µM		> 10 µM		> 10 µM		> 10 µM		> 10 µM		> 10 µM		> 10 µM		> 10 µM		> 10 µM		> 10 µM
CCN(C(=O)CN1CCN(c2cc3c(cc2F)c(=O)c(C(=O)O)cn3CC)CC1)c1nc(-c2ccccc2)cs1	0.248 µM	0.692 µM	0.43 µM	> 100 µM	0.376 µM	> 100 µM	0.354 µM	> 100 µM	0.337 µM	> 100 µM	0.226 µM	0.568 µM	0.259 µM	0.813 µM	0.295 µM	> 100 µM	0.59 µM	> 100 µM	0.306 µM	> 100 µM
Clc1ccccc1NN(Cc1ccncc1)c1ccccc1Cl		28.6 µM		36.2 µM		33.9 µM		26.4 µM		36 µM		32 µM		29.6 µM		53.5 µM		40.7 µM		29.7 µM
O=C(Nc1ccccc1Cl)c1cccc(NC2=C(Cl)C(=O)N(Cc3ccccc3)C2=O)c1		6.38 µM	18.6 µM	58.6 µM	2.52 µM	> 100 µM	21 µM	> 100 µM	26.7 µM	94.6 µM	51.2 µM	> 100 µM	7.72 µM	31.1 µM	11.6 µM	33.4 µM	18.6 µM	> 100 µM	3.05 µM	10.3 µM
COc1cccc2c1[C@H]1CO[C@H]3C4C[C@H](C(=O)O)C([C@@H](C2)N13)N4C (stereo not given in full)	0.245 µM	2.11 µM and 0.655 µM	1.13 µM	7.43 µM and > 32 µM	0.45 µM		0.5 µM	5.52 µM	0.684 µM	2.62 µM and 2.04 µM	0.515 µM	2.58 µM and 2.41 µM	0.0497 µM	0.914 µM and 0.109 µM	0.296 µM	10 µM	0.621 µM	4.91 µM and 1.65 µM		0.204 µM
NCCC(=O)NC(Cc1cnc[nH]1)C(=O)O (stereo not given)		> 100 µM		> 100 µM		> 100 µM		> 100 µM		> 100 µM		> 100 µM		> 100 µM		> 100 µM		> 100 µM		> 100 µM
CC/C=C\C/C=C/C=C1/C(=O)C=C[C@@H]1C/C=C\CCCC(=O)OC	3.35 µM	12.5 µM	3.81 µM	24.7 µM	1.36 µM	11.2 µM	2.35 µM	6.83 µM	3.04 µM	10 µM	2.14 µM	5.23 µM	1.78 µM	4.24 µM	0.5 µM	12.5 µM	2.33 µM	6.42 µM	2.05 µM	5.08 µM
COc1cc2c(cc1-c1coc3cc(OCC=C(C)C)ccc3c1=O)OCO2		> 100 µM		> 100 µM		45.2 µM		> 100 µM		> 100 µM		> 100 µM		48.9 µM		> 100 µM		> 100 µM		> 100 µM
C=C(Br)CNCC(=C)Br		> 100 µM		> 100 µM		> 100 µM		> 100 µM		> 100 µM		> 100 µM		> 100 µM		> 100 µM		> 100 µM		> 100 µM
CSCCCNC(=O)c1csc(-c2csc(CCNC(=O)CNC(=O)CNC(=O)CNC(=O)OC(C)(C)C)n2)n1		> 100 µM		> 100 µM		> 100 µM		> 100 µM		> 100 µM		> 100 µM		> 100 µM		> 100 µM		> 100 µM		> 100 µM
